In brackets after ≈: the same amount, converted by molar mass. Entries after “also recorded” stand apart in the source; their conditions may differ. Like-named read-outs stand apart in the source and are kept apart here.
Key:
[1] = source not given; cited from earlier work
zebrafish embryo = settings: cited from earlier work
fathead minnow = settings: cited from earlier work; for LC50: fathead minnow ref 27
[2] = Zebrafish embryo test after microinjection of gfp, adh8a, adh8b or adh8a/b mRNA; type: in vivo, zebrafish (Danio rerio); settings: OBI, zebrafish, in vivo, other: static waterborne exposure in exposure medium, exposure 8-56 h, with chorion, crystallization dish, strain OBI
Protocol: (§1) The zebrafish embryo test was performed with few modifications according to a standard operation procedure and a static exposure setup without renewal of exposure solutions (ISO 15088, 2006). The following chemicals were used: Allyl alcohol (CAS 107-18-6, purity 99.8%, Sigma-Aldrich, Deisenhofen, Germany), acrolein (CAS 107-02-8, purity ≥99.0%, Sigma-Aldrich, Deisenhofen, Germany), 4-Nitrophenol (CAS 100-02-7, PESTANAL, analytical standard, Sigma-Aldrich, Deisenhofen, Germany), and ethanol (CAS 64-17-5, purity ≥ 99.5%, Carl Roth, Germany). Stock solutions were prepared for each experiment by adding the appropriate amount for the highest test concentration to the exposure media (294.0 mg/L CaCl2*2H2O, 123.3 mg/L MgSO4*7H2O, 64.7 mg/L NaHCO3, 5.7 mg/L KCl). The solutions were prepared one day before the experiment in 100 ml closed graduated flasks and were stirred over night for approximately 14 h. Lower concentrations were obtained by serial dilutions. Fertilized eggs (embryos at 4–32 cell stage) were transferred by a pipette to 24-well plates (1 embryo per well, 10 wells per exposure concentration, Cellstar Greiner Bio-One, Frickenhausen, Germany) or crystallization glass dishes (80 mm diameter, 10–20 embryos per vial and 30 ml of exposure medium), respectively. Exposures were performed in independent triplicates on different days for 48 h from 2-50 hpf (hours post fertilization), 24–72 hpf, and 72–120 hpf. For the 24–72 hpf exposure, part of the embryos were manually dechorionated using forceps. […] At either 2, 8, 24 or 72 hpf the medium was completely removed and replaced by exposure media containing different concentrations of allyl alcohol (2 ml per well or 30 ml per crystallization dish, respectively). The Henry's law coefficients of the test chemicals (allyl alcohol: 4.99*10^−6, ethanol: 5.62*10^−6, 4-nitrophenol: 4.15*10^−10, acrolein: 1.22*10^−4; atm*m^3/mol) indicate a weak volatility for ethanol, allyl alcohol and acrolein. Therefore, in order to reduce potential evaporation, 24-well plates were covered with an adhesive foil; crystallization dishes were covered with a household plastic wrap and watch glasses. For comparison of the LC50 at different stages and the effect of dechorionation, exposure was performed in 24-well plates. For gene expression analysis and microinjection experiments crystallization dishes were used for exposure.
(§2) After 48 h of exposure referring to 50, 72 or 120 hpf stages, the number of dead embryos was counted. Dead embryos were detected according to the criteria given in the ISO standard; i.e., either coagulation, missing heartbeat, failure to develop somites or a lack of detachment of the tail-bud from the yolk sac were considered as indicators of lethality.
(§3) Injection needles were pulled from borosilicate glass capillary tubes with filament (GC100F-10; Warner Instruments, LLC, Hamden, CT) using a Narishige micropipette puller (Tokyo, Japan). Embryos were injected with the Eppendorf FemtoJet (Hamburg, Germany) through the chorion into the yolk compartment at the one-cell stage.
(§4) Plasmids with either the cDNA sequence of adh8a or adh8b were purchased from ImaGenes (Berlin, Germany, clone numbers IRBOp991G0334D for adh8a and IRBOp991F02101D for adh8b). The GFP open reading frame was cloned into the pCS2p+ Vector. For synthesis of capped mRNAs, adh8 plasmids were cut with XhoI and pCS2P+GFP was cut with KpnI. 5′ capped mRNA was synthesized with the mMessage Machine SP6 Kit (Life Technologies/Ambion, Darmstadt, Germany) according to the manufacturer's instructions. Injected mRNA concentration was 20–50 ng/µl. Phenol red was added to the RNA samples before injection (0.1% final concentration) in order to allow tracking of successful injections.
(§5) The LC50 values ± asymmetric 95% confidence intervals were calculated using the software JMP (SAS, Cary, NC) using the Hill-slope equation for modeling of concentration-response curves: [drawing 1] […]

[3] = tested on: gfp, adh8a, adh8b mRNA injected zebrafish embryos; test: as above; type: in vivo, zebrafish (Danio rerio); settings: for increase in acute toxicity in response to injection of adh8 mRNA: gfp, adh8a, adh8b, adh8a/b mRNA injected embryos
Protocol: as §1, §2, §3, §4, §5

[4] = Quantification of internal allyl alcohol concentration in mRNA-injected embryos by HS-GC-MS; type: in vivo, zebrafish (Danio rerio)
Protocol: 50 injected embryos were exposed from 8 hpf to 26 hpf with 0.5 or 1 mg/L allyl alcohol. At 26 hpf embryos were manually dechorionated using forceps and transferred into fresh 20 ml glass vials. The exposure medium was removed and embryos were rinsed twice with 2 ml ISO water for 30 sec, transferred into GC-MS headspace vials (Agilent Technologies, Böblingen, Germany). After removal of remaining fluid by using a microliter pipette the vials were closed and embryos were frozen at −20°C for 10 min. Subsequently, embryos were homogenized by 5 min sonication in an ultrasonic bath (Sonorex RK 512 H; Bandelin Electronic, 35 kHz). Chemical analyses were performed immediately after sonication using an Agilent 7890A gas chromatograph with headspace sampler G1888 (Agilent Technologies, Böblingen, Germany). The headspace oven temperature for equilibration of samples was set to 48°C for 10 min. The compound separation was performed using a capillary column (60 m×0.25 i.d.) with a nonpolar stationary phase HP1 (thickness 1.00 µm). Ultra high purity helium was used as carrier gas. Mass spectra were derived with Agilent 5975C inert XL MSD and Triple Axis Detector (Agilent Technologies,) in electron impact ionization mode 70eV. The detector conditions were: ion source temperature 230°C and quadrupole temperature 150°C. The column oven temperature program involved an initial temperature of 45°C for 1 min, an increase at 15°C/min to 150°C (held for 2 min), then an increase at 65°C/min to 250°C (held 0.5 min). The mass spectrometer was operated in selected ion monitoring (SIM) mode for calibration and analyte quantification in samples.
For the allyl alcohol calibration the following concentrations were used: 8.5; 42.5; 85; 425; 850 and 1700 µg/L. 5 µl of the respected concentration were transferred into a headspace vial and directly used for HS-GC-MS analysis. The calibration curve was generated based on peak areas. Exposure concentrations were determined for each replicate at the start of the exposure.

zebrafish embryos = test: Zebrafish embryo test (acute lethality, 48 h static exposure), non-injected embryos; type: in vivo, zebrafish (Danio rerio)
Protocol: as §1, §2
The LC50 values ± asymmetric 95% confidence intervals were calculated using the software JMP (SAS, Cary, NC) using the Hill-slope equation for modeling of concentration-response curves: [drawing 1]
Min and Max were set to 0 and 100%, respectively. x and y represented the nominal exposure concentration and the survival rate (percentage).

[5] = tested on: adh8a mRNA injected zebrafish embryos; test: Time-lapse recording of adh8a mRNA injected embryos exposed to allyl alcohol; type: in vivo; settings: 5 mg/L allyl alcohol, 24-wells
Protocol: For time lapse recording of zebrafish embryos were performed using a Leica DMI4000 B inverted microscope (Leica, Wetzlar, Germany), equipped with a digital camera (DFC 350FX; Leica) and 5× objective (HCX PL FLUOTAR, 5.0×0.15 DRY). adh8a mRNA injected were exposed to 5mg/L allyl alcohol in 24-well plates (2 embryos per 2 ml). A constant temperature of 26°C was maintained with a heated stage insert. Embryos were imaged by bright filed every 20 min for 20 h. Images were analyzed using LAS AF software (Leica, Wetzlar, Germany). Video was exported using 3 frames per second.

[6] = design: method as in PMID 22835061; settings: cited from earlier work; for measured concentration as % of nominal concentration: 24-well plates ref 18
adult zebrafish = tested on: adult zebrafish; design: method as in PMID 22835061; settings: adult zebrafish ref 18; cited from earlier work
[7] = adh8a mRNA injected, exposure 8-56 h, with chorion, crystallization dish, strain OBI
[8] = adh8b mRNA injected, exposure 8-56 h, with chorion, crystallization dish, strain OBI
[9] = gfp mRNA injected, exposure 8-56 h, with chorion, crystallization dish, strain OBI

O=[N+]([O-])c1ccc(O)cc1 [4-Nitrophenol]
Henry's law coefficient [1]: 4.15*10^−10 atm*m^3/mol | LC50 (zebrafish embryo; zebrafish embryo ref unpublished data): 12.0 µg/mL (≈ 86.3 µM) | LC50 (fathead minnow): 44.8 µg/mL (≈ 322 µM) | LC50 ([2]; adh8a mRNA injected): 9.65 µg/mL (≈ 69.4 µM) | LC50 ([2]; adh8a/b mRNA (1:1) injected): 10.2 µg/mL (≈ 73.4 µM) | LC50 ([2]; adh8b mRNA injected): 9.79 µg/mL (≈ 70.4 µM) | LC50 ([2]; gfp mRNA injected): 9.45 µg/mL (≈ 67.9 µM) | increase in acute toxicity in response to injection of adh8 mRNA [3]: did not detect any increase

CC=O [acetaldehyde]
fold higher toxicity compared to the parent compound ethanol (zebrafish embryo; zebrafish embryo ref 25): ~720 fold | fold higher toxicity compared to the parent compound ethanol (fathead minnow; adult fish ref 27): about 435 fold

C=CC=O [acrolein]
acrolein detection in GC/MS chromatograms ([4]; adh8a injected embryos exposed to allyl alcohol): could not detect acrolein | Henry's law coefficient [1]: 1.22*10^−4 atm*m^3/mol | LC50 (zebrafish embryos; exposure 2-50 hpf, with chorion, no mRNA injected, 24-well plates, strain OBI, n = 1): 0.42 µg/mL | fold lower LC50 of acrolein compared with allyl alcohol (zebrafish embryos; zebrafish embryos, 2-50 hpf): ~1000 fold

C=CCO [allyl alcohol, Allyl alcohol]
allyl alcohol detection in embryos by GC-MS ([4]; adh8a mRNA injected embryos): no allyl alcohol was found; also recorded: below the limit of detection | internal allyl alcohol concentration ([4]; adh8a mRNA injected, 0.5 mg/L nominal, 8-26 hpf, Repl. 1-3, n.d. = not detectable): 0 pg/embryo | internal allyl alcohol level (below the limit of detection) ([4]; adh8a-injected embryos): < 4.6 µg/L | internal allyl alcohol concentration (range) ([4]; before decline in adh8a-injected embryos): 0.23-58 ng/embryo | Henry's law coefficient [1]: 4.99*10^−6 atm*m^3/mol | fold lower LC50 for exposure from 72-120 hpf compared with earlier stages (zebrafish embryos; 72-120 hpf vs earlier exposure periods): 3 fold | sublethal malformations in exposed embryos (zebrafish embryos; 48 h exposures): No sublethal malformations were observed | LC50 (zebrafish embryos; exposure 2-50 hpf, non-injected, read-out: LC50): 8.2 mM | LC50 (zebrafish embryos; exposure 2-50 hpf, with chorion, no mRNA injected, 24-well plates, strain WIK): 478 µg/mL | LC50 (zebrafish embryos; exposure 8-56 h, with chorion, non-injected control, crystallization dish, strain OBI): 328 µg/mL | LC50 (zebrafish embryos; exposure 24-72 hpf, with chorion (value paired with 451 mg/L), read-out: LC50): 7.7 mM | LC50 (zebrafish embryos; exposure 24-72 hpf, with chorion, no mRNA injected, 24-well plates, strain WIK): 451 µg/mL | LC50 (zebrafish embryos; exposure 24-72 hpf, without chorion (manually removed), no mRNA injected, 24-well plates, strain WIK): 492 µg/mL | LC50 (zebrafish embryos; exposure 24-72 hpf, without chorion (value paired with 492 mg/L), read-out: LC50): 8.5 mM | LC50 (zebrafish embryos; exposure 72-120 hpf, hatched, no mRNA injected, 24-well plates, strain WIK): 157 µg/mL | LC50 (zebrafish embryos; exposure 72-120 hpf, hatched, no mRNA injected, 24-well plates, strain WIK, listed as Allyl alcohol): 159 µg/mL | LC50 (zebrafish embryos; exposure 72-120 hpf, read-out: LC50): 2.7 mM | time to coagulation of the embryos (zebrafish embryos; toxic concentration): ≤ 24 h | fold higher toxic concentrations (lower toxicity) in embryos compared to adult fish (zebrafish embryos; zebrafish embryos vs adult fish): about 1000 fold | time to coagulation of the embryos [5]: 3 to 9 h | measured concentration as % of nominal concentration ([6]; 0 h): about 80% | geometric mean of measured concentrations as % of nominal concentration ([6]; 24-well plates, 48 h ref 18): 47% | measured concentration as % of nominal concentration ([6]; within 48 h of exposure): about 28% | toxicity level (LC50) in adult fish (fathead minnow; fathead minnow ref 19): 0.32 µg/mL | LC50 (adult fish) (adult zebrafish): 0.28 µg/mL (≈ 4.82 µM) | LC50 ([3]; adh8a mRNA injected embryos, read-out: LC50): 0.0134 mM | LC50 [3, 7]: 0.78 µg/mL | LC50 ([3]; adh8a/b mRNA (1:1) injected, exposure 8-56 h, with chorion, crystallization dish, strain OBI): 2.11 µg/mL | LC50 [3, 8]: 166 µg/mL | fold reduction of LC50 by adh8b mRNA injection ([3]; adh8b mRNA injections): 2.5 fold | fold reduction of LC50 by adh8a mRNA injection ([3]; compared to gfp-injected or non-injected embryos): more than 500 fold | LC50 [3, 9]: 436 µg/mL

CCO [ethanol]
Henry's law coefficient [1]: 5.62*10^−6 atm*m^3/mol | LC50 (fathead minnow; adult fish): 14700 µg/mL (≈ 319000 µM) | LC50 [3, 7]: 18570 µg/mL | LC50 ([3]; adh8a/b mRNA injected, exposure 8-56 h, with chorion, crystallization dish, strain OBI): 17780 µg/mL | LC50 [3, 8]: 16310 µg/mL | LC50 [3, 9]: 19170 µg/mL | increase in acute toxicity in response to injection of adh8 mRNA [3]: did not detect any increase

Source: paper PMC3940891, “Transient Overexpression of adh8a Increases Allyl Alcohol Toxicity in Zebrafish Embryos” (PLoS ONE, 2014)
